Reference: article PMC5343874, “High Specific Selectivity and Membrane-Active Mechanism of Synthetic Cationic Hybrid Antimicrobial Peptides Based on the Peptide FV7” (International Journal of Molecular Sciences, 2017)
No end group written: not given here.

What was measured:
[1] = tested on: human red blood cells (hRBC); assay: Hemolytic activity; assay type: cell-based; conditions: 37 °C; for concentration causing 5% hemolysis (minimal hemolytic concentration, MHC): fresh human erythrocytes in PBS pH 7.4, 1 h, absorbance 570 nm, maximal concentration 128 µM, averages of three independent experiments
Protocol: The hemolytic activity of the peptides was evaluated by measuring the amount of released hemoglobin by the lysis of erythrocytes. The measurement was as previously described. Human red blood cells (hRBC) were obtained from healthy donors by the ethics committee of the Northeast Agricultural University Hospital. The fresh blood cells were washed 2–3 times in PBS (pH 7.4) and centrifuged at 1000× g for 5 min at 4 °C, then resuspended in PBS. Briefly, 50 μL of hRBC solution was incubated with 50 μL of different concentrations of each peptide dissolved in PBS in a 96-well microtiter plate. After incubation for 1 h at 37 °C, the mixtures were centrifuged at 1000× g for 5 min at 4 °C and then the supernatant was transferred to another 96-well microtiter plate. The release of hemoglobin was monitored by measurement of the absorbance at 570 nm using a multimode microplate reader (SpectraMax M5, Molecular Devices, San Francisco, CA, USA). The concentration causing 5% hemolysis was defined as the minimal hemolytic concentration (MHC). The control samples for 0% and 100% hemolysis consisted of hRBC in PBS (Ablank) only and in 0.1% Triton X-100 (Atriton), respectively. The percent hemolysis was calculated according to the following equation: % Hemolysis = [(Asample − Ablank)/(Atriton − Ablank)] × 100

E. coli ATCC 25922 [2] = assay type: cell-based, Escherichia coli
Protocol: (§1) Minimum inhibitory concentration (MIC) was determined using the modified standard microtiter dilution method as described previously. The bacteria were incubated overnight at 37 °C, […] at 220 rpm and transferred to new nutrient broth (MHB) until the logarithmic phase of growth. The bacteria were then diluted into 10^5 colony forming units (10^5 CFU/mL) in MHB. The peptides were dissolved and diluted in 0.01% acetic acid and 0.2% bovine serum albumin (BSA). Briefly, serial diluted (0.5–128 µM) peptides were added to sterile 96-well plates in a 50-μL volume of bacteria in MHB mixed with 50 µL. […] The results are expressed as an average of the MICs at least three times.
(§2) E. coli ATCC 25,922, S. typhimurium ATCC 7731, S. typhimurium ATCC 14028, P. aeruginosa ATCC 27853, B. subtilis CMCC 63501, S. aureus ATCC 29213, S. epidermidis ATCC 12228 and E. faecalis ATCC 29212 were obtained from the College of Veterinary Medicine, Northeast Agricultural University (Harbin, China). E. coli UB1005 was kindly provided by Qingsheng Qi (State Key Laboratory of Microbial Technology, Shandong University, Jinan, China). P. Aeruginosa PAO1 was kindly provided by Wengong Yu (State Key Laboratory of School of Medicine and Pharmacy, Ocean University of China, Qingdao, China).

E. coli UB 1005 = assay type: cell-based, Escherichia coli
Protocol: as §1, §2

S. aureus ATCC 29213 [3] = assay type: cell-based, Staphylococcus aureus
Protocol: as §1, §2

P. aeruginosa ATCC 27853 = assay type: cell-based, Pseudomonas aeruginosa
Protocol: as §1, §2

P. aeruginosa PAO1 = assay type: cell-based, Pseudomonas aeruginosa
Protocol: as §1, §2

[4] = tested on: S. typhimurium ATCC 14028; assay type: cell-based, Salmonella typhimurium
Protocol: as §1, §2

S. typhimurium ATCC 7731 = assay type: cell-based, Salmonella typhimurium
Protocol: as §1, §2

S. epidermidis ATCC12228 = assay type: cell-based, Staphylococcus epidermidis
Protocol: as §1, §2

S. faecalis ATCC 29212 = assay type: cell-based
Protocol: as §1, §2

B. subtilis CMCC 63501 = assay type: cell-based, Bacillus subtilis
Protocol: as §1, §2

S. aureus ATCC 29213 [5] = assay: Salt and heat sensitivity (MIC); assay type: cell-based, Staphylococcus aureus; set-up: key to MIC, FeCl3 / MIC, Mix / MIC, Control / MIC, NaCl / MIC, KCl / MIC, NH4Cl / MIC, MgCl2 / MIC, ZnCl2 / MIC, CaCl2: MIC in µM (peptide serial dilutions 0.5–128 µM); MIC, Heat (100 °C): unit not given beside the values; conditions: for MIC, FeCl3: 4 mM FeCl3; for MIC, Mix: mixture medium with all salts in physiological concentrations; for MIC, Heat (100 °C): peptide incubated at 100 °C for 1 h
Protocol: as §1
(§3) The incubation to test for thermal stability occurred at 100 °C for 1 h. After these treatments, the procedures were the same as described above for the MIC assay.

E. coli ATCC 25922 [6] = assay: Salt and heat sensitivity (MIC); assay type: cell-based, Escherichia coli; set-up: key to MIC, Control / MIC, NaCl / MIC, KCl / MIC, NH4Cl / MIC, MgCl2 / MIC, ZnCl2 / MIC, FeCl3 / MIC, CaCl2 / MIC, Mix: MIC in µM (peptide serial dilutions 0.5–128 µM); MIC, Heat (100 °C): unit not given beside the values; conditions: for MIC, MgCl2: 1 mM MgCl2; for MIC, CaCl2: 2.5 mM CaCl2; for MIC, FeCl3: 4 mM FeCl3; for MIC, KCl: 4.5 mM KCl; for MIC, NH4Cl: 6 mM NH4Cl; for MIC, ZnCl2: 8 mM ZnCl2; for MIC, NaCl: 150 mM NaCl; for MIC, Control: absence of physiological salts; for MIC, Mix: mixture medium with all salts in physiological concentrations; for MIC, Heat (100 °C): peptide incubated at 100 °C for 1 h
Protocol: as §1, §3

[7] = tested on: E. coli UB1005 inner membrane; assay: Inner membrane permeability (ONPG hydrolysis); assay type: cell-based, Escherichia coli; conditions: 1× MIC, absorbance 420 nm, 0–30 min
Protocol: The inner membrane permeability activity against E. coli bacteria was determined by the uptake of ONPG. E. coli UB 1005 cells were cultured to mid-log phase in MHB medium containing 2% lactose at 37 °C, and harvested by centrifugation at 3000× g for 5 min. After washing twice, the cells were diluted to an OD600 of 0.05 with buffer (10 mM PBS, pH 7.4) containing 1.5 mM ONPG. […] The value of OD reflected the ONPG flowing into the cells was measured at 420 nm from 0 to 30 min every two min.

[8] = tested on: Gram-negative and Gram-positive bacteria; assay: MIC across the bacterial panel; assay type: cell-based
Protocol: as §1, §2

## FRIRVRVFKRIVQRIKDFLR-NH2 [FV-LL]
[1]
  concentration causing 5% hemolysis (minimal hemolytic concentration, MHC): > 128 µM
E. coli ATCC 25922 [2]
  MIC: 1 µM
E. coli UB 1005
  MIC: 4 µM
S. aureus ATCC 29213 [3]
  MIC: 2 µM
P. aeruginosa ATCC 27853
  MIC: 4 µM
P. aeruginosa PAO1
  MIC: 2 µM
[4]
  MIC: 2 µM
S. typhimurium ATCC 7731
  MIC: 2 µM
S. epidermidis ATCC12228
  MIC: 1 µM
S. faecalis ATCC 29212
  MIC: 4 µM
B. subtilis CMCC 63501
  MIC: 4 µM

## FRIRVRVKWKLFKKI-NH2 [FV-CE]
[1]
  concentration causing 5% hemolysis (minimal hemolytic concentration, MHC): > 128 µM
E. coli ATCC 25922 [2]
  MIC: 2 µM
E. coli UB 1005
  MIC: 2 µM
S. aureus ATCC 29213 [3]
  MIC: 8 µM
P. aeruginosa ATCC 27853
  MIC: 2 µM
P. aeruginosa PAO1
  MIC: 2 µM
[4]
  MIC: 4 µM
S. typhimurium ATCC 7731
  MIC: 4 µM
S. aureus ATCC 29213 [5]
  MIC, FeCl3: 4
  MIC, Mix: 4
  MIC, Heat (100 °C): 4
S. epidermidis ATCC12228
  MIC: 0.5 µM
E. coli ATCC 25922 [6]
  MIC, MgCl2: 2
  MIC, CaCl2: 2
  MIC, FeCl3: 4
  MIC, KCl: 2
  MIC, NH4Cl: 2
  MIC, ZnCl2: 2
  MIC, NaCl: 2
  MIC, Control: 2
  MIC, Mix: 2
  MIC, Heat (100 °C): 2
S. faecalis ATCC 29212
  MIC: 1 µM
B. subtilis CMCC 63501
  MIC: 1 µM

## FRIRVRV-NH2 [FV7]
[1]; at 128 µM, human erythrocytes, 1 h
  hemolysis: approximately 15%
[1]
  concentration causing 5% hemolysis (minimal hemolytic concentration, MHC): 4 µM
E. coli ATCC 25922 [2]
  MIC: 16 µM
E. coli UB 1005
  MIC: 32 µM
S. aureus ATCC 29213 [3]
  MIC: 64 µM
P. aeruginosa ATCC 27853
  MIC: 16 µM
P. aeruginosa PAO1
  MIC: 32 µM
[4]
  MIC: 16 µM
S. typhimurium ATCC 7731
  MIC: 32 µM
S. epidermidis ATCC12228
  MIC: 32 µM
S. faecalis ATCC 29212
  MIC: 32 µM
B. subtilis CMCC 63501
  MIC: 16 µM

## CC[C@H](C)[C@H](NC(=O)CN)C(=O)NCC(=O)N[C@@H](C)C(=O)N[C@H](C(=O)N[C@@H](CC(C)C)C(=O)N[C@@H](CCCCN)C(=O)N[C@H](C(=O)N[C@@H](CC(C)C)C(=O)N[C@H](C(=O)N[C@H](C(=O)NCC(=O)N[C@@H](CC(C)C)C(=O)N1CCC[C@H]1C(=O)N[C@@H](C)C(=O)N[C@@H](CC(C)C)C(=O)N[C@H](C(=O)N[C@@H](CO)C(=O)N[C@@H](Cc1c[nH]c2ccccc12)C(=O)N[C@H](C(=O)N[C@@H](CCCCN)C(=O)N[C@@H](CCCNC(=N)N)C(=O)N[C@@H](CCCCN)C(=O)N[C@@H](CCCNC(=N)N)C(=O)N[C@@H](CCC(N)=O)C(=O)N[C@@H](CCC(N)=O)C(N)=O)[C@@H](C)CC)[C@@H](C)CC)[C@@H](C)O)[C@@H](C)O)C(C)C)C(C)C [ME26, melittin]
[1]; human erythrocytes, 1 h
  concentration giving complete hemolysis: greater than 4 µM
[7]
  inner membrane permeability (ONPG hydrolysis, in words): highest ability for inner membrane permeability
S. aureus ATCC 29213 [5]; 1 mM MgCl2
  MIC, MgCl2: 2
S. aureus ATCC 29213 [5]; 2.5 mM CaCl2
  MIC, CaCl2: 4
S. aureus ATCC 29213 [5]
  MIC, FeCl3: 2
  MIC, Mix: 4
  MIC, Heat (100 °C): 8
S. aureus ATCC 29213 [5]; 4.5 mM KCl
  MIC, KCl: 4
S. aureus ATCC 29213 [5]; 6 mM NH4Cl
  MIC, NH4Cl: 2
S. aureus ATCC 29213 [5]; 8 mM ZnCl2
  MIC, ZnCl2: 2
S. aureus ATCC 29213 [5]; 150 mM NaCl
  MIC, NaCl: 4
S. aureus ATCC 29213 [5]; absence of physiological salts
  MIC, Control: 8
E. coli ATCC 25922 [6]
  MIC, MgCl2: 4
  MIC, CaCl2: 2
  MIC, FeCl3: 2
  MIC, KCl: 2
  MIC, NH4Cl: 2
  MIC, ZnCl2: 4
  MIC, NaCl: 4
  MIC, Control: 2
  MIC, Mix: 4
  MIC, Heat (100 °C): 2

## FKRIVQRIKDFLR-NH2 [LL]
E. coli ATCC 25922 [2]
  MIC: 16 µM
E. coli UB 1005
  MIC: 16 µM
S. aureus ATCC 29213 [3]
  MIC: 16 µM
P. aeruginosa ATCC 27853
  MIC: 8 µM
P. aeruginosa PAO1
  MIC: 16 µM
[4]
  MIC: 32 µM
S. typhimurium ATCC 7731
  MIC: 16 µM
S. epidermidis ATCC12228
  MIC: 8 µM
S. faecalis ATCC 29212
  MIC: 32 µM
B. subtilis CMCC 63501
  MIC: 16 µM

## AKKFGKAFVGEIM-NH2 [MA]
E. coli ATCC 25922 [2]
  MIC: 32 µM
E. coli UB 1005
  MIC: >64 µM
S. aureus ATCC 29213 [3]
  MIC: >64 µM
P. aeruginosa ATCC 27853
  MIC: >64 µM
P. aeruginosa PAO1
  MIC: >64 µM
[4]
  MIC: >64 µM
S. typhimurium ATCC 7731
  MIC: >64 µM
S. epidermidis ATCC12228
  MIC: >64 µM
S. faecalis ATCC 29212
  MIC: >64 µM
B. subtilis CMCC 63501
  MIC: >64 µM
[8]
  minimum inhibitory concentration: greater than 64 μM

## KWKLFKKI-NH2 [CE]
E. coli ATCC 25922 [2]
  MIC: 64 µM
E. coli UB 1005
  MIC: >64 µM
S. aureus ATCC 29213 [3]
  MIC: >64 µM
P. aeruginosa ATCC 27853
  MIC: >64 µM
P. aeruginosa PAO1
  MIC: >64 µM
[4]
  MIC: >64 µM
S. typhimurium ATCC 7731
  MIC: >64 µM
S. epidermidis ATCC12228
  MIC: >64 µM
S. faecalis ATCC 29212
  MIC: >64 µM
B. subtilis CMCC 63501
  MIC: >64 µM
[8]
  minimum inhibitory concentration: greater than 64 μM

## FRIRVRVAKKFGKAFVGEIM-NH2 [FV-MA]
[1]; human erythrocytes, 1 h, up to 128 µM
  hemolytic activity (in words): higher hemolytic activity at each concentration when compared to FV7
E. coli ATCC 25922 [2]
  MIC: 8 µM
E. coli UB 1005
  MIC: 8 µM
S. aureus ATCC 29213 [3]
  MIC: 8 µM
P. aeruginosa ATCC 27853
  MIC: 8 µM
P. aeruginosa PAO1
  MIC: 2 µM
[4]
  MIC: 4 µM
S. typhimurium ATCC 7731
  MIC: 4 µM
S. epidermidis ATCC12228
  MIC: 8 µM
S. faecalis ATCC 29212
  MIC: 16 µM
B. subtilis CMCC 63501
  MIC: 4 µM
